According to patent US9211310B2, “Use of a Chinese medicine composition in preparing medicaments for treating secondary prevention of myocardial infarction” (TASLY PHARMACEUTICAL GROUP CO., LTD, priority 2010, dated 2015):

Test system: patients after acute myocardial infarction
Experiment: Life quality, Seattle Angina Questionnaire (SAQ), same clinical trial
Type: in vivo, human
Details: PP
From the text: 3508 patients who were in accordance with the diagnostic standards of AMI for 28 days to 2 years and differentiated as Qi deficiency and blood stagnation syndrome by TCM were studied. 0.5 g Chinese medicine composition prepared by the method of EXAMPLE 1 (Coded as QSYQ) was administrated half an hour after meal, 3 times per day.
There were 19 questions in the Seattle angina questionnaire (SAQ), including 5 parts: physical limitation (PL), anginal stability (AS), anginal frequency (AF), treatment satisfaction (TS) and disease perception (DP). After being given necessary explanation by doctors, the questions were answered independently by patients.
They included the overall survival time, angina pectoris score, TCM symptom score and life quality score, where angina pectoris score, TCM symptom score and life quality score were evaluated at randomization, in 1st, 3rd, 6th, 9th, 12th month after treatment and 18th month after follow-up.
All evaluation results of SAQ were described during the period of observation, and Wilcoxon rank sum test was used for inter-group comparison.
The evaluation results in the SAQ were depicted in different observations, and inter-group comparison was tested by Wilcoxon Rank-sum test.

## CC(=O)Oc1ccccc1C(=O)O [Control group, aspirine]
9 months after treatment
  SAQ 5th question, <1 time per week: number of patients: 412
  SAQ 5th question, No onset: % of patients: (4.66%)
  SAQ 5th question, No onset: number of patients: 67
  SAQ 5th question, ≧3 times per week: % of patients: (29.49%)
  SAQ 5th question, ≧3 times per week: number of patients: 424
  SAQ 5th question, ≧4 times per day: % of patients: (0.49%)
  SAQ 5th question, ≧4 times per day: number of patients: 7
  SAQ 6th question, Dissatisfied: % of patients: (0.07%)
  SAQ 6th question, Dissatisfied: number of patients: 1
  SAQ 6th question, Highly satisfied: % of patients: (24.93%)
  SAQ 6th question, Highly satisfied: number of patients: 359
  SAQ 6th question, Mostly dissatisfied: % of patients: (1.53%)
  SAQ 6th question, Mostly dissatisfied: number of patients: 22
  SAQ 6th question, Mostly satisfied: % of patients: (59.38%)
  SAQ 6th question, Mostly satisfied: number of patients: 855
  SAQ 6th question, Partly satisfied: % of patients: (14.10%)
  SAQ 6th question, Partly satisfied: number of patients: 203
  SAQ 7th question, Dissatisfied: % of patients: (0.07%)
  SAQ 7th question, Dissatisfied: number of patients: 1
  SAQ 7th question, Highly satisfied: % of patients: (28.44%)
  SAQ 7th question, Highly satisfied: number of patients: 409
  SAQ 7th question, Most dissatisfied: % of patients: (0.83%)
  SAQ 7th question, Most dissatisfied: number of patients: 12
  SAQ 7th question, Mostly satisfied: % of patients: (59.74%)
  SAQ 7th question, Mostly satisfied: number of patients: 859
  SAQ 7th question, Partly satisfied: % of patients: (10.92%)
  SAQ 7th question, Partly satisfied: number of patients: 157
  SAQ Question 1-1 Mildly limited, number of patients: 18
  SAQ Question 1-1 Mildly limited, percent of patients: (1.25%)
  SAQ Question 1-1 Moderately limited, number of patients: 3
  SAQ Question 1-1 Moderately limited, percent of patients: (0.21%)
  SAQ Question 1-1 Not limited, number of patients: 1366
  SAQ Question 1-1 Not limited, percent of patients: (95.06%)
  SAQ Question 1-1 Other reasons, number of patients: 3
  SAQ Question 1-1 Other reasons, percent of patients: (0.21%)
  SAQ Question 1-1 Severely limited, number of patients: 0
  SAQ Question 1-1 Severely limited, percent of patients: (0.00%)
  SAQ Question 1-1 Slightly limited, number of patients: 47
  SAQ Question 1-1 Slightly limited, percent of patients: (3.27%)
  SAQ Question 1-2 Mildly limited, number of patients: 20
  SAQ Question 1-2 Mildly limited, percent of patients: (1.39%)
  SAQ Question 1-2 Moderately limited, number of patients: 4
  SAQ Question 1-2 Moderately limited, percent of patients: (0.28%)
  SAQ Question 1-2 Not limited, number of patients: 1358
  SAQ Question 1-2 Not limited, percent of patients: (94.50%)
  SAQ Question 1-2 Other reasons, number of patients: 5
  SAQ Question 1-2 Other reasons, percent of patients: (0.35%)
  SAQ Question 1-2 Severely limited, number of patients: 0
  SAQ Question 1-2 Severely limited, percent of patients: (0.00%)
  SAQ Question 1-2 Slightly limited, number of patients: 50
  SAQ Question 1-2 Slightly limited, percent of patients: (3.48%)
  SAQ Question 1-6: Mildly limited, patients (%): (14.59%)
  SAQ Question 1-6: Moderately limited, patients (%): (11.31%)
  SAQ Question 1-6: Not limited, patients (%): (38.48%)
  SAQ Question 1-6: Other reasons, patients (%): (0.91%)
  SAQ Question 1-6: Severely limited, patients (%): (2.30%)
  SAQ Question 1-6: Slightly limited, patients (%): (32.40%)
  SAQ Question 1-7: Mildly limited, patients (%): (21.63%)
  SAQ Question 1-7: Moderately limited, patients (%): (10.88%)
  SAQ Question 1-7: Not limited, patients (%): (18.30%)
  SAQ Question 1-7: Other reasons, patients (%): (3.25%)
  SAQ Question 1-7: Severely limited, patients (%): (13.71%)
  SAQ Question 1-7: Slightly limited, patients (%): (32.23%)
  SAQ Question 1-8: Mildly limited, patients (%): (25.11%)
  SAQ Question 1-8: Moderately limited, patients (%): (14.11%)
  SAQ Question 1-8: Not limited, patients (%): (12.34%)
  SAQ Question 1-8: Other limited, patients (%): (3.76%)
  SAQ Question 1-8: Severely limited, patients (%): (17.23%)
  SAQ Question 1-8: Slightly limited, patients (%): (27.45%)
12 months after treatment
  8th question: Dissatisfied, patients (%): (0.00%)
  8th question: Highly satisfied, patients (%): (26.80%)
  8th question: Mostly dissatisfied, patients (%): (1.26%)
  8th question: Mostly satisfied, patients (%): (61.16%)
  8th question: Partly satisfied, patients (%): (10.78%)
  9th question: Few, patients (%): (41.42%)
  9th question: Mild, patients (%): (29.64%)
  9th question: Moderate, patients (%): (4.48%)
